Test results as given in US20100331189A1, “Plant Growth Promoter Utilizing Potato Cyst Nematode” (TOKAI UNIVERSITY EDUCATIONAL SYSTEM, priority 2008, published 2010).

Key:
beets [1] = test: Beet cultivation after treatments of farmland sections (2008); format: in vivo; conditions: for Average weight / Weight of the largest beet: sprayed once before planting; for growth promotion / enlargement of a beet (in words): results of beet cultivation of Table 8
Method: [table] The beets were cultivated under the conditions that the width of a ridge was 69 cm and the distance between beets was 30 cm. […] Then the beets were cultivated until Oct. 8, 2008 and harvested. After the stems and leaves of the harvested beets were removed, the weight of the beets was measured.

PCN = PCN density in treated farmland sections (2008); format: in vivo, potato cyst nematodes
beets [2] = test: Beet cultivation in PCN-contaminated farmland after spraying around the roots (2007); format: in vivo; conditions: cultivated 112 days; for Average weight of three beets other than the largest beet / Weight of the largest beet: PCN-contaminated farmland; for Sugar content: saccharimeter
Method: A farmland (Fujimi, Kutchan-cho, Hokkaido) contaminated by PCNs was examined in advance.
In that farmland, about […] beets per 1 m^2 were cultivated under the conditions that the width of a ridge was 69 cm and the distance between beets was 30 cm. […] The amount sprayed was changed to three levels, 1.8, 5.5, and 9.0 (g/m^2), and each chemical agent having the above-described amount was dissolved in 5 liters of water to obtain a spraying solution. Subsequently, the beets were cultivated for 112 days and the grown beets were harvested. The weight (kg) of the largest beet, the average weight (kg) of three beets other than the largest beet, and the sugar content (%) were measured. […] The sugar content (%) was measured with a saccharimeter (MASTER-M model 2313 available from ATAGO Co., Ltd.). […]
The mixed chemical agent contained 6% by mass of coconut oil fatty acid diethanolamide and 0.6% by mass of polyethylene glycol.

[3] = test system: eggs of potato cyst nematodes; test: Accelerated hatching effect of aqueous fatty acid dialkanolamide solution; format: in vivo; conditions: 1000-fold diluted aqueous solution; water 5.0%
Method: The accelerated hatching effect of an aqueous fatty acid dialkanolamide solution for the eggs of potato cyst nematodes was measured. […] It is believed that the fatty acid dialkanolamide has a function of breaking the eggshell of PCNs and thus the eggs of PCNs are forcedly hatched.

PCNs = test: PCN control at a site where a potato had been cultivated: nematode density after spraying; format: in vivo, potato cyst nematodes; conditions: sprayed amount 9.0 g/m^2; soil had 2000 to 5000 PCNs per 20 g
Source text: After the chemical agents were sprayed, all the cysts in 20 g of air-dried soil were gathered and the total number of eggs and second-generation larvae in the cysts was obtained.

[4] = Polarity and solubility in water; format: physicochemical; conditions: research conducted by the inventors
Source text: Thus, the inventors of the present invention have focused on an ecological method. The ecological method is an indirect method in which the eggs of PCNs are forcedly hatched in some way, and then the hatched larvae are made to starve to death or destroyed using a typical agricultural chemical, which results in the prevention of the damage caused by the PCNs. It has been known for a long time that PCNs hatch when exposed to a substance secreted from the host plants, and there has been conducted a study for identifying a hatching-activating substance and isolating it from the secretory substance. Patent Document 1 discloses Solanoeclepin A as the hatching-activating substance.

[5] = 260 mg in 100 ml of water per single beet
[6] = 260 mg in 100 ml of water per two beets

SMILES	growth promotion / enlargement of a beet (in words) (beets [1])	Average weight of three beets other than the largest beet (beets [2]; sprayed amount 1.8 g/m^2, once) [kg]	Weight of the largest beet (beets [2]; sprayed amount 1.8 g/m^2, once) [kg]	Sugar content (beets [2]; sprayed amount 1.8 g/m^2, once) [%]	Average weight of three beets other than the largest beet (beets [2]; sprayed amount 5.5 g/m^2, once) [kg]	Weight of the largest beet (beets [2]; sprayed amount 5.5 g/m^2, once) [kg]	Sugar content (beets [2]; sprayed amount 5.5 g/m^2, once) [%]	Average weight of three beets other than the largest beet (beets [2]; sprayed amount 9.0 g/m^2, once) [kg]	Weight of the largest beet (beets [2]; sprayed amount 9.0 g/m^2, once) [kg]	Sugar content (beets [2]; sprayed amount 9.0 g/m^2, once) [%]	also measured
CCCCCC(=O)N(CCO)CCO [Example 15, hexanoic acid diethanolamide]	achieves the enlargement of a beet										Average weight (beets [1]; [5]): 1.55 kg; Weight of the largest beet (beets [1]; [5]): 2.10 kg; PCN density (PCN; 260 mg in 100 ml of water sprayed around the area of a single beet): 600 /20 g of air-dried soil; effect on PCN density (in words) (PCN; section 2-1 compared with section 1-1): decreases PCN density
CCCCCCCCCC(=O)N(CCO)CCO [Example 4, decanoic acid diethanolamide]		1.86	2.20	21.20	1.92	2.35	20.00	1.62	2.15	23.40	hatching ratio [3]: 23.8%; Nematode density (total number of eggs and second-generation larvae in the cysts) (PCNs): 765 /20 g of air-dried soil
CC(=O)NCCO [compound 13, acetic acid monoethanolamide]	poor effect of growth promotion										Average weight (beets [1]; [6]): 1.40 kg; Weight of the largest beet (beets [1]; [6]): 1.40 kg
CC(=O)N(CCO)CCO [Example 1, acetic acid diethanolamide]		1.63	2.85	19.80	1.68	2.53	20.10	1.40	1.90	19.90	
CCCCCCCCCC(=O)NCCO [compound 14, decanoic acid monoethanolamide]	poor effect of growth promotion										Average weight (beets [1]; [6]): 1.10 kg; Weight of the largest beet (beets [1]; [6]): 1.80 kg
CCCCCCCCCCCCCCCCCC(=O)N(CCO)CCO [Example 7, octadecanoic acid diethanolamide]		1.48	2.05	20.20	1.65	1.95	20.20	1.85	2.30	21.00	Nematode density (total number of eggs and second-generation larvae in the cysts) (PCNs): 540 /20 g of air-dried soil
COC1=C2C(C)(C)[C@H]3O[C@@]2(CC3=O)[C@@H](O)C2=C(C1=O)[C@@]13C(=O)[C@@]([C@@H]4C[C@H]4C(=O)O)(C[C@@H]1O)[C@]3(C)CC2 [Solanoeclepin A]											solubility in water [4]: poor solubility in water
